Where “and” joins values, the source holds several entries; their conditions need not be identical. Equal entries are not always repeated.
Assays:
[1] = Meropenem infusion in porcine model before CRRT, blood concentration; type: in vivo, Swine; settings: infused for 30 minutes
Procedure: Swine (3 male and 3 female, for both CVVH and CVVHD modalities) weighing 35-40 kg were used. In this model, a total functional nephrectomy was achieved by ligation of all renal arteries. Animals were inspected by professional veterinary staff within 48 hours of arrival. Any underlying infections or parasitism was treated based on veterinary recommendations. After taking a pre-MB-102 blood sample (baseline), a dose of 6 mg/kg of MB-102 was injected as a single bolus, followed by a 90 minute period of equilibration, to allow for MB-102 systemic redistribution (see FIGS. 7 and 13 for equilibration of fluorescent signal detected by the renal monitoring assembly). Thirty minutes after the MB-102 injection, Meropenum was infused for 30 minutes, which reached a peak concentration in blood ˜1 hr after the start of the infusion. […] Samples collected during these periods, along with the baseline (BSL) sample taken before the MB-102 dose, were assayed, and measured values were used in calculations to compare clearance rates with real-time MB-102 clearance measurements. […] A similar sample collection time-course was initiated at the high flow rate for both the low and high effluent flow rate data sets (seven sample time points at three circuit sites), allowing for similar comparisons of real-time and calculated clearance rates.

[2] = In vitro continuous hemodialysis (CVVHD) model, saturation coefficient; type: in vitro ADME, bovine; settings: for Saturation coefficient (mean ± SD): CVVHD, blood flow 200 mL/min
Procedure: For CVVHD experiments, the CLTM was assessed using a previously validated in vitro CVVHD model as illustrated in FIG. 6. Commonly used effluent flow rates of 16, 33, 50, and 100 mL/min, and a blood flow rate of 200 mL/min were used. Effluent was prepared according to directions from the manufacturer by mixing sodium bicarbonate powder (NATURALYTE® 4000, Fresenius Medical Care, Waltham, Mass., USA) with distilled water in a 45:1 ratio. After adding MB-102 and urea to the blood, it was recirculated through the circuit for 5 min for uniform coating of the extracorporeal circuit. A single-pass mode of the CVVHD procedure with four different flow rates was run in random order for each hemodiafilter. Blood samples were collected from the pre- and post-filter ports, and spent effluent samples were taken from the effluent port 5 min after initiation of the CVVHD experiments at all four effluent flow rates. These experiments were conducted on 6 new hemodiafilters and CRRT tubing sets. Saturation coefficient (SA) and CLTM were calculated as follows:
[formula] CLdiff=(SA×Qd) Equation (6)
where SA is the saturation coefficient; CUF is the concentration in the effluent; Ca is the concentration of the solute in the pre-filter; CV is the concentration of the solute in the post-filter; CLdiff is the diffusion clearance for post-filter replacement; Qd is the effluent flow rate.
(§1) All blood samples were collected and centrifuged at 3000 rpm for 10 minutes. The plasma and effluent samples were transferred to cryovials in duplicate and stored at −80° C. until analysis. BUN concentrations were analyzed with Advia 1800 (Siemens Healthcare Diagnostic Inc., Tarrytown, N.Y., USA) having a lower limit of quantification of 5 mg/dL.
(§2) Similarly, six CVVH and CVVHD experiments with each hemodiafilter were used to detect a 25% difference in MB-102 CLTM between hemodiafilters. Assumptions used in these calculations included: a power of 90% and a standard deviation of 10% with a significance level of p<0.05. A two-tailed, unpaired t-test was used to compare differences between the two hemodiafilters, and the analysis of variance was used to compare different QUF and Qd within each hemodiafilter type.

[3] = Adsorption of MB-102 to CRRT apparatus, in vitro CVVH model; type: in vitro ADME, bovine; settings: for mean percent change at the end of experiment: average of 6 experiments, 60 min; for percent change at the end of each experiment: single experiments 1-6, initial to 60 min, blood flow 200 mL/min, Quf 33 mL/min
Procedure: As an initial step, it was determined if the compound MB-102 adsorbs onto the hemodiafilter, tubing or other parts of the CRRT instrument. This study used a continuous venovenous hemofiltration (CVVH) configuration to assess MB-102 adsorptive clearance with a previously validated in vitro CVVH model using 1 L of pH regulated, citrate-anti-coagulated bovine blood. Using a Braun DIAPACT™ CRRT system, two different hemodiafilters were tested: the HF1400 and the M150 hemodiafilters. New bovine blood, hemodiafilters, and CRRT tubing sets were used in each experiment. The blood was continuously stirred and maintained at 37° C. in a water bath during all experiments. Reconstituted MB-102 was added to the blood to achieve a final concentration of ˜6.2 mg/L. Urea was used as a control and added to the blood to produce a blood urea nitrogen (BUN) concentration of ˜75 mg/dL. Blood flow rates of 200 mL/min with an ultrafiltration rate (Quf) of 33 mL/min were tested. This maximized MB-102 contact with the membranes, both on the blood side and via convection through the hemodiafilter membrane. A closed system was developed to maintain a constant volume in the extracorporeal system. The effluent was used as the replacement fluid which was returned to the blood as a post-filter replacement fluid to maintain a constant blood volume. The CRRT instrument was primed with normal saline before operation, consequently the urea and MB-102 dilution caused by the residual priming solution was accounted for. Blood samples were collected from the pre-filter port at 0 (baseline), 5 (at which time mixing was complete), 10, 20, 30, and 60 minutes. Each experiment was repeated six times with new hemodiafilters and tubing sets.
Equations used to calculate the dilution factor and adsorption are as follows:
[formula] wherein C0 is the concentration of MB-102 in the pre-filter at time=0 minutes; and C60 is the concentration of MB-102 in the pre-filter at time=60 minutes.
[formula] where [Urea0] is the urea concentration in the pre-filter at time=0 minutes; and [Urea60] is the urea concentration in the pre-filter at time=60 minutes.
as §1, with “mg/dL. […]” for “mg/dL.”

[4] = In vitro continuous hemofiltration (CVVH) model, sieving coefficient; type: in vitro ADME, bovine; settings: CVVH
Procedure: The procedure for the CVVH study was conducted using the model CVVH system illustrated in FIG. 5. The CLTM of urea and MB-102 were evaluated with different blood flow rates, ultrafiltration rate (Quf) and hemodiafilters (Table 1). In a closed-loop system, the formed effluent was returned to the blood as a post-filter replacement fluid downstream from the post-hemodiafilter blood sampling port. Pre- and post-hemodiafilter blood samples, and effluent samples were collected concurrently. Six experiments were conducted for each hemodiafilter, and new hemodiafilters and CRRT apparatus were used for each experiment. Sieving coefficient (SC) and CLTM were calculated as follows:
[formula] where Sc is the sieving coefficient; Cuf is the concentration in the effluent; Ca is the concentration of the solute in the pre-filter; and Cv is the concentration of the solute in the post-filter. CLconv=SC×QUF Equation (4) wherein CLconv is the convective clearance for the post-filter replacement; QUF is the ultrafiltration rate.
as §1, §2

time to peak concentration in blood after the start of the infusion [1] [h]	Saturation coefficient (mean ± SD) ([2]; HF1400, Qd 16.7 mL/min)	Saturation coefficient (mean ± SD) ([2]; HF1400, Qd 33.3 mL/min)	Saturation coefficient (mean ± SD) ([2]; HF1400, Qd 50 mL/min)	Saturation coefficient (mean ± SD) ([2]; HF1400, Qd 100 mL/min)	Saturation coefficient (mean ± SD) ([2]; M150, Qd 16.7 mL/min)	Saturation coefficient (mean ± SD) ([2]; M150, Qd 33.3 mL/min)	Saturation coefficient (mean ± SD) ([2]; M150, Qd 50 mL/min)	Saturation coefficient (mean ± SD) ([2]; M150, Qd 100 mL/min)	mean SA values ([2]; low effluent flow rates (16-50 mL/min))	mean percent change at the end of experiment ([3]; HF1400 hemodiafilter) [%]	mean percent change at the end of experiment ([3]; M150 hemodiafilter) [%]	Mean sieving coefficient ([4]; HF1400, ultrafiltration rate 16.7 mL/min)	Mean sieving coefficient ([4]; HF1400, ultrafiltration rate 33.3 mL/min)	Mean sieving coefficient ([4]; HF1400, ultrafiltration rate 50 mL/min)	Mean sieving coefficient ([4]; M150, ultrafiltration rate 16.7 mL/min)	Mean sieving coefficient ([4]; M150, ultrafiltration rate 33.3 mL/min)	Mean sieving coefficient ([4]; M150, ultrafiltration rate 50 mL/min)	Structure (SMILES)	percent change at the end of each experiment ([3]; HF1400 hemodiafilter)	percent change at the end of each experiment ([3]; M150 hemodiafilter)
~1																		C[C@@H](O)[C@H]1C(=O)N2C(C(=O)O)=C(S[C@@H]3CN[C@H](C(=O)N(C)C)C3)[C@H](C)[C@H]12 [Meropenem, meropenem]		
	1.04 ± 0.07	1.19 ± 0.09	1.17 ± 0.11	1.17 ± 0.19	1.08 ± 0.08	1.16 ± 0.04	1.15 ± 0.15	1.35 ± 0.20	approximately unity	19.5	19.3	1.08 ± 0.03	1.09 ± 0.05	1.08 ± 0.07	1.00 ± 0.05	1.04 ± 0.10	1.05 ± 0.04	NC(N)=O [Urea, reference compound]	19.6% and 20.9% and 18.6% and 20.0% and 18.2%	17.5% and 19.5% and 21.7% and 18.0% and 17.0% and 22.0%
